What was measured:
[1] = target: T1, NEP enzyme (Homo sapiens, UniProt P08473); assay: In vitro NEP enzyme inhibition assay (fluorogenic peptide substrate); type: biochemical; settings: read-out: pIC50 for the NEP enzyme (converted)
T1 construct: purchased R&D Systems, Minneapolis, Minn; 1182-ZN
Description: The inhibitory activities of compounds at human and rat NEP and human ACE were determined using in vitro assays as described below.
Rat NEP was prepared from the kidneys of adult Sprague Dawley rats. Whole kidneys were washed in cold PBS and brought up in ice-cold lysis buffer (1% Triton X-114, 150 mM NaCl, 50 mM Tris pH 7.5; Bordier (1981) J. Biol. Chem. 256:1604-1607) in a ratio of 5 mL of buffer for every gram of kidney. Samples were homogenized using a polytron hand held tissue grinder on ice. Homogenates were centrifuged at 1000×g in a swinging bucket rotor for 5 minutes at 3° C. The pellet was resuspended in 20 mL of ice cold lysis buffer and incubated on ice for 30 minutes. […] Protein concentrations were quantitated using a BCA detection system with BSA as a standard. […]
The assays were performed in 384-well white opaque plates at room temperature using the respective fluorogenic peptides at a concentration of 10 μM in assay buffer (50 mM Tris/HCl at 25° C., 100 mM NaCl, 0.01% Tween-20, 1 μM Zn, 0.025% BSA). […] The rat NEP enzyme preparation was used at a concentration that yielded quantitative proteolysis of 3 μM of Mca-RRL within 20 minutes at room temperature. […]
Plates were read on a fluorometer with excitation and emission wavelengths set to 320 nm and 405 nm, respectively. […]

[2] = target: T2, human AT1 receptor (Homo sapiens, UniProt P30556); assay: AT1 radioligand binding assay ([Eu]AngII displacement, CHO-K1 membranes); settings: read-out: pKi at the AT1 receptor (converted)
T2 construct: expressed in transfected cells; host or cells: CHO-K1
T2 sequence (P30556 1-359): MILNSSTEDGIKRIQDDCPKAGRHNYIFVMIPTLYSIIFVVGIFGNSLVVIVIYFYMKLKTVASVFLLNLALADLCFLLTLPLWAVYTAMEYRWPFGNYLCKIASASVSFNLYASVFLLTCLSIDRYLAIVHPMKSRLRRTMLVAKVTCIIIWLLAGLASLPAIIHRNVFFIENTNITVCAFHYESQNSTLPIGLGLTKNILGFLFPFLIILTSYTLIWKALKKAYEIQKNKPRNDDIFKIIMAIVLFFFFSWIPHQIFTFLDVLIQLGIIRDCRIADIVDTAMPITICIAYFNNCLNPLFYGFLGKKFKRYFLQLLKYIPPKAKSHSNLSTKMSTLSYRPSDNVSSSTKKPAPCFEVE
Description: These in vitro assays were used to assess the ability of test compounds to bind to the AT1 and the AT2 receptors.
Chinese hamster ovary (CHO-K1) derived cell lines stably expressing the cloned human AT1 or AT2 receptors, respectively, were grown in HAM's-F 12 medium supplemented with 10% fetal bovine serum, 10 μg/ml penicillin/streptomycin, and […] in a 5% CO2 humidified incubator at 37° C. AT2 receptor expressing cells were grown in the additional presence of 100 nM PD123,319 (AT2 antagonist). When cultures reached 80-95% confluence, the cells were washed thoroughly in PBS and lifted with 5 mM EDTA. Cells were pelleted by centrifugation and snap frozen in MeOH-dry ice and stored at −80° C. until further use.
For membrane preparation, cell pellets were resuspended in lysis buffer (25 mM Tris/HCl pH 7.5 at 4° C., 1 mM EDTA, and one tablet of Complete Protease Inhibitor Cocktail Tablets with 2 mM EDTA per 50 mL buffer (Roche cat. #1697498, Roche Molecular Biochemicals, Indianapolis, Ind.)) and homogenized using a tight-fitting Dounce glass homogenizer (10 strokes) on ice. The homogenate was centrifuged at 1000×g, the supernatant was collected and centrifuged at 20,000×g. […] Protein concentration of the membrane suspension was determined by the method described in Bradford (1976) Anal Biochem. 72:248-54. […]

T1 sequence (P08473 52-750 limits assumed): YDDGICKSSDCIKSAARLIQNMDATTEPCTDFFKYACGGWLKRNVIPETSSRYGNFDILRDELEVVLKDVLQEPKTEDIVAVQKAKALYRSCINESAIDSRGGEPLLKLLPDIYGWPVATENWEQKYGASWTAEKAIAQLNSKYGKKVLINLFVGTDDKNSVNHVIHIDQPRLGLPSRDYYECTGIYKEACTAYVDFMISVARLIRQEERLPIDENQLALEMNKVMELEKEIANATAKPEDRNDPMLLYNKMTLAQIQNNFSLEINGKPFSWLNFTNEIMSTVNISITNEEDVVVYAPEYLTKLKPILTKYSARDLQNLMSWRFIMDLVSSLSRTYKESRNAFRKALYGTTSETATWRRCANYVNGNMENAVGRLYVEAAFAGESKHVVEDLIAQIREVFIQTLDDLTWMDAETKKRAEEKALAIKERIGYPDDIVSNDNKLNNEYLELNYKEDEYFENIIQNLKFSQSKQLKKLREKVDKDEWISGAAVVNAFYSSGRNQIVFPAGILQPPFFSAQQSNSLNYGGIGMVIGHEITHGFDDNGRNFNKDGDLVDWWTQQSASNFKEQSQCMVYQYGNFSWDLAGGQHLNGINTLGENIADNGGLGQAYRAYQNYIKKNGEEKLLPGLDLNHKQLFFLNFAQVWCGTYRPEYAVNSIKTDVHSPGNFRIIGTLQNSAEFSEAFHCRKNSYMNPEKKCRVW

IC50 [1]: < 1000 nM
Ki [2]: < 31.6 nM
Structure (SMILES): CCCc1oc(C(=O)N[C@H](Cc2ccccc2)[C@@H](O)C(=O)O)nc1Cc1ccc(-c2ccccc2-c2nnn[nH]2)cc1 [Example 1, (2R,3R)-2-Hydroxy-4-phenyl-3-({5-propyl-4-[2′-(1H-tetrazol-5-yl)-biphenyl-4-ylmethyl]-oxazole-2-carbonyl}amino)butyric Acid]

Reference: patent publication US8598170B2, “Dual-acting oxazole antihypertensive agents” (Theravance, Inc., priority 2009, dated 2013)
